# From ChEMBL document CHEMBL1201862, “PubChem BioAssay data set” (2004)
# Active and inactive are the calls of the source.
# Assays:
# cells = conditions: HEK293
# [1] = viability loss in HepG2 liver cells – cell-based, ATP luminescence, cherry-pick, set 6, cytotoxicity control, dose response (AID 1053125); assay type: functional
# [2] = target: T1, DNA repair protein RAD52 homolog (Homo sapiens, UniProt P43351); assay type: functional, biochemical
# T1 sequence (P43351 whole entry): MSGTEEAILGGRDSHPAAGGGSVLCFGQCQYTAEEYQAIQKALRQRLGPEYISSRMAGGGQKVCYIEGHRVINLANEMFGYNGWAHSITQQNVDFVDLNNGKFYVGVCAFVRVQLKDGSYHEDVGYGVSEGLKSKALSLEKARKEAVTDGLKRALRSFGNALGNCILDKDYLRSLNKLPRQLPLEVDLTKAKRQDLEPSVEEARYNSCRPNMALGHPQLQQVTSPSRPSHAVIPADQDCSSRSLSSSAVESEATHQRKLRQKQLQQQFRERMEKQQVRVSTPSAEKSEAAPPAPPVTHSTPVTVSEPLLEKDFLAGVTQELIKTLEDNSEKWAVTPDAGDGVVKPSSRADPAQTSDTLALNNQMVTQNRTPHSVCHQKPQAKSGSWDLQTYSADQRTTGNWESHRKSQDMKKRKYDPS
# [3] = Trypanosoma cruzi growth suppression in host cells – NIH3T3 host cells, beta-gal luminescence, confirmation (AID 2044); assay type: functional, cell-based;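 note: intracellular parasites grown in NIH/3T3 mouse fibroblasts as host cells; luminescent beta-galactosidase reporter signal from transgenic T. cruzi replicating inside host cells; inhibitors lower the luminescence signal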
# [4] = NIH3T3 cell viability loss – ATP luminescence, mouse fibroblasts, counter-screen, dose response (AID 2010); assay type: functional, cell-based;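 note: cells exposed to compound for about 90 hours before reading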
# [5] = target: COUP transcription factor 2 (Homo sapiens, UniProt P24468); test: Luminescence-based cell-based high throughput dose response assay to identify inhibitors of COUP-TFII (NR2F2).; assay type: functional;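 note: HEK293 cells transiently cotransfected with COUP-TFII expression vector and reporter; luciferase reporter luminescence driven by COUP-TFII from the pX2-168 reporter plasmid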
# COUP transcription factor 2, sequence (P24468 whole entry): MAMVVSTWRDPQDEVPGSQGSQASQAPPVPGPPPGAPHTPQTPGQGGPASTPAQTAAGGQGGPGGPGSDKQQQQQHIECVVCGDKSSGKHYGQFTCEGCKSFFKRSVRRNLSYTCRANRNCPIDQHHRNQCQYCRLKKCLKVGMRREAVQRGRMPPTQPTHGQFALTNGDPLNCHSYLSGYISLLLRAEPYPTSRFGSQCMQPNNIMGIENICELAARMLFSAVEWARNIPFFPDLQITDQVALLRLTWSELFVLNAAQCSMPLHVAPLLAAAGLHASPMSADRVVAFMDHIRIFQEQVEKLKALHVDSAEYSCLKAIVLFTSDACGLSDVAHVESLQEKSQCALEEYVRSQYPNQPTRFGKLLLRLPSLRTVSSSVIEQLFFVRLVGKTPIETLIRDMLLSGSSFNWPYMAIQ
# [6] = IC50 of Artemis nuclease activity blockers – biochemical, fluorescence intensity, dose response (AID 720701); assay type: functional;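 note: Artemis endonuclease enzyme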
# Aminopeptidase N = target: T2, Aminopeptidase N (Plasmodium falciparum FcB1/Columbia, UniProt O96935); test: malaria alanyl aminopeptidase activity blockers – biochemical, fluorogenic H-Leu-NHMec substrate, 1536-well (AID 1445); parameters: species or system Plasmodium falciparum 3D7, 3D7
# T2 sequence (O96935 whole entry): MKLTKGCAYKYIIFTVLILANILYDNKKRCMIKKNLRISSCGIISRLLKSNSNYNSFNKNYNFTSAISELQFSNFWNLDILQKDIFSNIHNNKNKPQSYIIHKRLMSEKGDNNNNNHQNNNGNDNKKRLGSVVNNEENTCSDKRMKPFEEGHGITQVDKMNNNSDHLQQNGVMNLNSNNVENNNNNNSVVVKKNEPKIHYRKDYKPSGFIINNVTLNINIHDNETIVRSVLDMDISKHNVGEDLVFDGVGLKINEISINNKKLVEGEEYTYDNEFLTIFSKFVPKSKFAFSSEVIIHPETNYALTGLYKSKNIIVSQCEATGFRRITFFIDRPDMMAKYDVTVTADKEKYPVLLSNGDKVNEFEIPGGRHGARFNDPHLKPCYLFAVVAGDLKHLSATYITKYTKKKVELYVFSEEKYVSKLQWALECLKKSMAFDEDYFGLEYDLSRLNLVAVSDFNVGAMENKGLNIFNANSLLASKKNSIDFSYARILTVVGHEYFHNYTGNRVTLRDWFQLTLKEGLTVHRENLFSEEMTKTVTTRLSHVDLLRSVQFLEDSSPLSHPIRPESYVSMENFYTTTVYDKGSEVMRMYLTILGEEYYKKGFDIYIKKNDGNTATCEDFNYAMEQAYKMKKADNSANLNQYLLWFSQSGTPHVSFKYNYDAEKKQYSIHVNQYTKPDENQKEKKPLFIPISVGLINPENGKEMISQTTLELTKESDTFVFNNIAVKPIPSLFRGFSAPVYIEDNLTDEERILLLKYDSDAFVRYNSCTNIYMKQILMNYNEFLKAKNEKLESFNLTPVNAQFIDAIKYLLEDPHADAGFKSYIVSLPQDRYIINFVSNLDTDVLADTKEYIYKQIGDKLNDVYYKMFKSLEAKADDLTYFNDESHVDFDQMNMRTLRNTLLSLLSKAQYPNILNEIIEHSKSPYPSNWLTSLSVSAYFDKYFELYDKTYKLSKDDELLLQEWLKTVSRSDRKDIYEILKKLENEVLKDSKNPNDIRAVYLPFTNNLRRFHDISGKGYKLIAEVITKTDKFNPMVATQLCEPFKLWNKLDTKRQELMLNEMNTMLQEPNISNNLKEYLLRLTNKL
# Leucine aminopeptidase = target: T3, Leucine aminopeptidase (Plasmodium falciparum 3D7, UniProt Q8IL11); test: P. falciparum M17LAP inhibitors, primary screen, biochemical, fluorogenic H-Leu-NHMec substrate, 1536-well (AID 1619); assay type: functional
# T3 sequence (Q8IL11 whole entry): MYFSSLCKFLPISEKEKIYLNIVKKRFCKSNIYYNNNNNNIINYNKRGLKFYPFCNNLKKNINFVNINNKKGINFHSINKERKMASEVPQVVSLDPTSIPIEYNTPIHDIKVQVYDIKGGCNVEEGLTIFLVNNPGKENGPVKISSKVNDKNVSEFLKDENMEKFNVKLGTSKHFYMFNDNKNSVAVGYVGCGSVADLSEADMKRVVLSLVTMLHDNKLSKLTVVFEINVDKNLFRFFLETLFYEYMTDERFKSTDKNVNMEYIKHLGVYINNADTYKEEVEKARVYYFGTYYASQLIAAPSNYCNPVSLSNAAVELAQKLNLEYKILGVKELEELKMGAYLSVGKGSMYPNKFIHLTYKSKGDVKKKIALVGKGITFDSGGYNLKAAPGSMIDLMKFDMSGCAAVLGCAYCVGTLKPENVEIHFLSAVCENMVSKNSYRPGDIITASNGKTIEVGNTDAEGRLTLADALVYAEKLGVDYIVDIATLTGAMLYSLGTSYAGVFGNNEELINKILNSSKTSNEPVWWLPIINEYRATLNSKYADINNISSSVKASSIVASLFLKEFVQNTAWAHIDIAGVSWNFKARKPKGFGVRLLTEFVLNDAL
# Interleukin-8 [7] = target: T4, Interleukin-8 (Homo sapiens, UniProt P10145); test: Dose Response confirmation of uHTS small molecule hits for cystic fibrosis induced NFkb Inhibitors in a PAF-induced IL8 counterscreen.; assay type: functional; conditions: read-out: IC50_Mean
# T4 sequence (P10145 whole entry): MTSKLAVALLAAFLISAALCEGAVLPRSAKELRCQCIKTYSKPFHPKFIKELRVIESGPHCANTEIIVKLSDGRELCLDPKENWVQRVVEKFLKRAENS
# [8] = EF1alpha-driven Renilla reporter with control 3'UTR suppression – Clone20-Shn3RL cells, dual-Glo, cherry-pick, set 2, counter-screen for Shn3 3'UTR targeting project, dose response (AID 720724); assay type: functional, cell-based; conditions: Dual-Go Shn3RL
# [9] = reduction of Shn3 3'UTR-driven luciferase in osteoblasts – cell-based, Clone20 osteoblasts, firefly luciferase, cherry-picked, dose response (AID 624132); assay type: functional;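 note: firefly luciferase luminescence from reporter carrying the Shn3 3'UTR in osteoblasts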
# Interleukin-8 [10] = target: T4, Interleukin-8; test: Dose Response confirmation of uHTS small molecule hits for cystic fibrosis induced NFkb Inhibitors in a TNFa-induced IL8 counterscreen.; assay type: functional; conditions: read-out: IC50_Mean
# [11] = Shn3 3'UTR reporter signal decrease – cell-based, Clone20 osteoblasts, firefly luciferase, cherry-pick, set 2, Schnurri-3 inhibitor project, dose response (AID 720490); assay type: functional;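 note: actives lower the luminescence signal as inhibitors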
# HEK293 = test: EBV LMP1 TES2 canonical NF-kB signalling blockers – cell-based, HEK293, luciferase, cherry-pick, dose response (AID 588343); assay type: functional; conditions: Homo sapiens
# [12] = non-specific 3'UTR reporter inhibition in Clone20-Shn3RL – cell-based, Renilla luciferase, cherry-picked, counter-screen for Shn3 inhibitor project, dose response (AID 624133); assay type: functional
# [13] = loss of viability in HepG2 cells – cell-based, CellTiter-Glo, cherry-picked, cytotoxicity control for Shn3 inhibitor project, dose response (AID 624134); assay type: functional
# [14] = inhibitors acting on PAX2 in cells – cell-based, plate reader, dry powder samples, selectivity assay for PAX8 inhibitor project, dose response (AID 743048); assay type: functional;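 note: HEK293 cells carrying a WT1 promoter luciferase reporter driven by expressed Pax2; potency is for inhibition of Pax2 driven reporter signal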
# [15] = OV-90 cell viability loss – plate reader, dry powder, SA8, PAX8 inhibitor project, dose response (AID 743149); assay type: functional, cell-based
# BJ [16] = test: cells; assay type: functional, cell-based; conditions: Homo sapiens
# BJ [17] = test: BJ-TERT-LT-ST fibroblast viability loss – cell-based, RAS-independent, luminescence, dose response (AID 1935); assay type: functional; conditions: Homo sapiens;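 note: BJ fibroblasts immortalized with TERT plus LT and ST oncogenes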
# [18] = COV362 cell viability loss – plate reader, dry powder, SA12, cytotoxicity control for PAX8 inhibitor project, dose response (AID 743144); assay type: functional, cell-based
# BJ [19] = test: BJ-TERT fibroblast viability loss – cell-based, RAS-independent, luminescence, dose response (AID 1933); assay type: functional; conditions: Homo sapiens
# [20] = DRD fibroblast viability loss – cell-based, non-viral oncogenic, luminescence, dose response (AID 1934); assay type: functional; conditions: Homo sapiens
# [21] = PAX5 cellular inhibition readout – cell-based, plate reader, dry powder samples, selectivity assay for PAX8 inhibitor project, dose response (AID 743047); assay type: functional;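 note: HEK293 cells carrying a Pax5 driven CD19 promoter luciferase reporter; potency of inhibitors that lower reporter luminescence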
# BJ [22] = test: growth inhibition of engineered Ras-driven BJ cells – cell-based, alamar blue fluorescence, cherrypicked samples, dose response (AID 2631); assay type: functional; conditions: Homo sapiens;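 note: confirmatory dose-response assay in RAS-dependent BJ fibroblasts engineered with TERT, LT and ST, with cytotoxicity read by fluorescence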
# [23] = luciferase reporter signal suppression in cells – H4 neuroglioma cells, luminescence, dose response (AID 1990); assay type: functional, cell-based
# [24] = toxicity toward immortalized ovarian surface epithelium – cell-based, plate reader, dry powder samples, cytotoxicity control for PAX8 inhibitor project, dose response (AID 743045); assay type: functional
# [25] = alpha-synuclein stem-loop luciferase translation blockers – H4 neuroglioma cells, luminescence, confirmation (AID 1988); assay type: functional, cell-based
# [26] = COV434 cell viability loss – plate reader, dry powder, SA7, cytotoxicity control for PAX8 inhibitor project, dose response (AID 743145); assay type: functional, cell-based
# [27] = IGROV1 cell killing – plate reader, dry powder samples, PAX8 inhibitor project, dose response (AID 743043); assay type: functional, cell-based; conditions: IGROV-1
# Paired box protein Pax-8 = Paired box protein Pax-8 (Homo sapiens, UniProt Q06710); test: PAX8 transcriptional activity inhibition in RMG-I – RMG-I cells, luciferase, cherry-pick, dose response (AID 687027); assay type: functional, cell-based;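 note: luciferase reporter driven by Pax8 target thyroperoxidase promoter measured by SteadyGlo luminescence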
# Paired box protein Pax-8, sequence (Q06710 whole entry): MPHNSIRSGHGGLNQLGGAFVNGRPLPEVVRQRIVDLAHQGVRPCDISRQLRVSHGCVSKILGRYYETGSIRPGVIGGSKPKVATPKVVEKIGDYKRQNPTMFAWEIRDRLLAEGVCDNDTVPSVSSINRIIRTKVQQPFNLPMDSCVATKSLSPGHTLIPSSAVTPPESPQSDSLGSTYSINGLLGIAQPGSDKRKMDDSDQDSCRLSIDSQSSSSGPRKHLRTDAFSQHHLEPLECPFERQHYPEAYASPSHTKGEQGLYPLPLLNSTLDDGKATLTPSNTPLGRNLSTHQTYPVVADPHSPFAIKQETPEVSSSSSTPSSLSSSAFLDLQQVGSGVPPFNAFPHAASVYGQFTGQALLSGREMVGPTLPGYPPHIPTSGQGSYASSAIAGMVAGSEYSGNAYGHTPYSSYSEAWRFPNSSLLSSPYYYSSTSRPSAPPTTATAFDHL
# [28] = OVCAR-3 cell viability loss – plate reader, dry powder samples, PAX8 inhibitor project, dose response (AID 743044); assay type: functional, cell-based
# [29] = OVCAR4 cell viability loss – plate reader, dry powder, SA11, cytotoxicity control for PAX8 inhibitor project, dose response (AID 743150); assay type: functional, cell-based; conditions: OVCAR-4
# [30] = PAX8-dependent cell viability loss – plate reader, dry powder, dose response (AID 743049); assay type: functional, cell-based
# [31] = Luminescence Cell-Based Dose Response HTS to Identify Inhibitors of 5'UTR Stem-Loop Driven Prion Protein mRNA Translation in H4 Neuroglioblastoma Cells. [Related pubchem assays: 1827 (Project Summary), 1813 (Primary HTS)]; assay type: functional
# [32] = A2780 cell killing – plate reader, dry powder samples, cytotoxicity control, dose response (AID 743046); assay type: functional, cell-based
compound,measurement,setting,value
Cc1cccn2c(=O)c3cc(C(=O)NC(C)c4ccccc4)c(=N)n(CCCn4ccnc4)c3nc12 (configuration not stated),AC50,cells,> 52 µM (inactive)
same,AC50,[1],> 52 µM (inactive)
same,AC50,[2],4.29 µM (active)
Cc1c(C(=O)N2CCN(Cc3ccc4c(c3)OCO4)CC2)sc2ncnc(N3CCN(c4ccccc4F)CC3)c12,EC50,[3],487 nM (active)
same,EC50,[4],> 60 µM (not active)
same,IC50,[5],6.85 µM (active)
O=C(Cc1ccsc1-c1ccccc1)NO,IC50,[6],1.4 µM (active)
same,IC50,Aminopeptidase N,10.4 µM (active)
same,IC50,Leucine aminopeptidase,43.4 µM (active)
Cc1ccccc1C(=O)N1CCN(c2ccc(NC(=O)CSc3ccc(Cl)cc3)cc2)CC1,IC50,Interleukin-8 [7],1.6 µM (active)
same,AC50,[8],38.8 µM (active)
same,AC50,[9],4.23 µM (active)
same,IC50,Interleukin-8 [10],39.9 µM (inactive)
same,AC50,[11],6.91 µM (active)
same,AC50,HEK293,378 nM (active)
same,AC50,[12],25.2 µM (active)
same,AC50,[13],44.1 µM (active)
CCOc1ccc2c(c1)C(C)=CC(C)(C)N2S(=O)(=O)c1ccc(NC(C)=O)cc1,AC50,[14],31.8 µM (active)
same,AC50,[15],2.6 µM (active)
same,EC50,BJ [16],1.54 µM (active)
same,EC50,BJ [17],428 nM (inconclusive)
same,AC50,[18],4.1 µM (active)
same,EC50,BJ [19],642 nM (active)
same,EC50,[20],722 nM (active)
same,AC50,[21],89.2 µM (active)
same,EC50,BJ [22],< 104 nM (active)
same,EC50,[23],199 nM (active)
same,AC50,[24],2.54 µM (active)
same,EC50,[25],129 nM (active)
same,AC50,[26],1.53 µM (active)
same,AC50,[27],15.9 µM (active)
same,AC50,Paired box protein Pax-8,1.61 µM (active)
same,AC50,[28],41.1 µM (active)
same,AC50,[29],1.83 µM (active)
same,AC50,[30],12.1 µM (active)
same,EC50,[31],162 nM (active)
same,AC50,[32],4.06 µM (active)
